Test results as given in ChEMBL document CHEMBL1687887, “Evolution of potent and stable placental-growth-factor-1-targeting CovX-bodies from phage display peptide discovery” (J Med Chem, 2011).
Numbered stars: 1 amine (or outer) side, 2 acyl side, 3 side chain; on linkers, the order of the positions; unused ones are H or OH. Bridge positions count the residues as written; N and C are the ends. Square brackets hold non-standard residues; d marks the D form. Peptide text beside a SMILES is read from it. * marks the point of attachment. X2 = NCCCC[C@H](N[*:1])C(=O)NC(=O)COCC(=O)[*:2]; X1 = O=C(COCC(=O)*)Nc1ccc(CCC(=O)N2CCC2=O)cc1; X3 = O=C(CCc1ccc(N*)cc1)N1CCC1=O; Aad = N[C@@H](CCCC(=O)O)C(=O)O

How the values were obtained:
Placenta growth factor [1] = biological target: T1, Placenta growth factor (Homo sapiens, UniProt P49763); test: Binding affinity to human PlGF-1
T1 sequence (P49763 whole entry): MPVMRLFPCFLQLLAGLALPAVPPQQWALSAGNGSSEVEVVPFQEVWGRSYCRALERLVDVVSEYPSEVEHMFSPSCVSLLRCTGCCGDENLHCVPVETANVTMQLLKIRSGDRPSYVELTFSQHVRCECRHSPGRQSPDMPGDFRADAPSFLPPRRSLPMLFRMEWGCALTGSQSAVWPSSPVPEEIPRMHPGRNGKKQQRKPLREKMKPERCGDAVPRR

Placenta growth factor [2] = biological target: T1, Placenta growth factor; test: Inhibition of human PlGF-1-VEGFR-1 interaction by ELISA

Row | IC50 (Placenta growth factor [2]) | Compound | other results
1 | – | CC(=O)NCCCC[C@H](NC(=O)[C@@H]1CSSC[C@H](NC(=O)[C@@H](NC(=O)[C@H](CC(=O)O)NC(=O)[C@H](Cc2ccccc2)NC(C)=O)C(C)C)C(=O)N[C@@H](CC(N)=O)C(=O)N[C@@H](Cc2c[nH]c3ccccc23)C(=O)N[C@@H](C(C)C)C(=O)N[C@@H]([C@@H](C)O)C(=O)N[C@@H](CC(C)C)C(=O)N2CCC[C@H]2C(=O)N[C@@H](Cc2cnc[nH]2)C(=O)N1)C(=O)N[C@H](C(=O)N[C@@H](CCCCN)C(=O)NC(=O)COCC(=O)Nc1ccc(CCC(=O)N2CCC2=O)cc1)C(C)C (Ac-FDVCNWVTLPHCK(Ac)V[X2]-X3; disulfide 4-12) | Kd (Placenta growth factor [1]; read-out: Kd): 0.005 µM
2 | 6 µM | CSCC[C@H](NC(=O)[C@@H](NC(=O)[C@H](CCCCN)NC(=O)[C@@H]1CSSC[C@H](NC(=O)[C@@H](NC(=O)[C@H](CC(=O)O)NC(=O)[C@H](Cc2ccccc2)NC(C)=O)C(C)C)C(=O)N[C@@H](CCCCN)C(=O)N[C@@H](Cc2c[nH]c3ccccc23)C(=O)N[C@@H](C(C)C)C(=O)NCC(=O)N[C@@H](CC(C)C)C(=O)N2CCC[C@H]2C(=O)N[C@@H](Cc2cnc[nH]2)C(=O)N1)C(C)C)C(N)=O (Ac-FDVCKWVGLPHCKVM-NH2; disulfide 4-12) | –
3 | 100 µM | CC[C@H](C)[C@H](NC(=O)[C@H](C)NC(=O)[C@H](CC(C)C)NC(=O)[C@@H]1CSSC[C@H](NC(=O)[C@@H](NC(=O)[C@H](CC(=O)O)NC(=O)[C@H](CC(C)C)NC(C)=O)C(C)C)C(=O)N[C@@H](CC(C)C)C(=O)N[C@@H](Cc2c[nH]c3ccccc23)C(=O)N[C@@H](C(C)C)C(=O)N[C@@H](CO)C(=O)N[C@@H](CC(C)C)C(=O)N2CCC[C@H]2C(=O)N[C@@H](Cc2cnc[nH]2)C(=O)N1)C(N)=O (Ac-LDVCLWVSLPHCLAI-NH2; disulfide 4-12) | –
4 | – | CSCC[C@H](NC(=O)[C@@H](NC(=O)[C@H](CCCCNC(C)=O)NC(=O)[C@@H]1CSSC[C@H](NC(=O)[C@@H](NC(=O)[C@H](CC(=O)O)NC(=O)[C@H](Cc2ccccc2)NC(=O)COCC(=O)Nc2ccc(CCC(=O)N3CCC3=O)cc2)C(C)C)C(=O)N[C@@H](CC(N)=O)C(=O)N[C@@H](Cc2c[nH]c3ccccc23)C(=O)N[C@@H](C(C)C)C(=O)N[C@@H]([C@@H](C)O)C(=O)N[C@@H](CC(C)C)C(=O)N2CCC[C@H]2C(=O)N[C@@H](Cc2cnc[nH]2)C(=O)N1)C(C)C)C(N)=O (X1-FDVCNWVTLPHCK(Ac)VM-NH2; disulfide 4-12) | Kd (Placenta growth factor [1]; read-out: Kd): > 1 µM
5 | 1 µM | CSCC[C@H](NC(=O)[C@H](CCCCN)NC(=O)[C@@H]1CSSC[C@H](NC(=O)[C@@H](NC(=O)[C@H](CC(=O)O)NC(=O)[C@H](Cc2ccccc2)NC(C)=O)C(C)C)C(=O)N[C@@H](CCCCN)C(=O)N[C@@H](Cc2c[nH]c3ccccc23)C(=O)N[C@@H](C(C)C)C(=O)N[C@@H]([C@@H](C)O)C(=O)N[C@@H](CC(C)C)C(=O)N2CCC[C@H]2C(=O)N[C@@H](Cc2cnc[nH]2)C(=O)N1)C(=O)N[C@@H](CCCC(N)=O)C(N)=O (Ac-FDVCKWVTLPHCKM[Aad](NH2)-NH2; disulfide 4-12) | –
6 | 9 µM | CSCC[C@H](NC(=O)[C@@H](NC(=O)[C@H](CCCNC(=N)N)NC(=O)[C@@H]1CSSC[C@H](NC(=O)[C@@H](NC(=O)[C@H](CC(=O)O)NC(=O)[C@H](Cc2ccccc2)NC(C)=O)C(C)C)C(=O)N[C@@H](CC(N)=O)C(=O)N[C@@H](Cc2c[nH]c3ccccc23)C(=O)N[C@@H](C(C)C)C(=O)NCC(=O)N[C@@H](CC(C)C)C(=O)N2CCC[C@H]2C(=O)N[C@@H](Cc2cnc[nH]2)C(=O)N1)C(C)C)C(N)=O (Ac-FDVCNWVGLPHCRVM-NH2; disulfide 4-12) | –
7 | 100 µM | CC[C@H](C)[C@H](NC(=O)[C@H](CC(=O)O)NC(=O)[C@H](Cc1ccc(O)cc1)NC(C)=O)C(=O)N[C@H]1CSSC[C@@H](C(=O)N[C@@H](Cc2ccccc2)C(=O)N[C@@H](C)C(=O)N[C@H](C(N)=O)C(C)C)NC(=O)[C@H](Cc2cnc[nH]2)NC(=O)[C@@H]2CCCN2C(=O)[C@H](CC(C)C)NC(=O)[C@H](CCCNC(=N)N)NC(=O)[C@H]([C@@H](C)CC)NC(=O)[C@H](Cc2ccc(O)cc2)NC(=O)[C@H](Cc2cnc[nH]2)NC1=O (Ac-YDICHYIRLPHCFAV-NH2; disulfide 4-12) | –
8 | 1 µM | CSCC[C@H](NC(=O)[C@@H](NC(=O)[C@H](CCCCN)NC(=O)[C@@H]1CSSC[C@H](NC(=O)[C@@H](NC(=O)[C@H](CC(=O)O)NC(=O)[C@H](Cc2ccccc2)NC(C)=O)C(C)C)C(=O)N[C@@H](CC(N)=O)C(=O)N[C@@H](Cc2c[nH]c3ccccc23)C(=O)N[C@@H](C(C)C)C(=O)N[C@@H]([C@@H](C)O)C(=O)N[C@@H](CC(C)C)C(=O)N2CCC[C@H]2C(=O)N[C@@H](Cc2cnc[nH]2)C(=O)N1)C(C)C)C(N)=O (Ac-FDVCNWVTLPHCKVM-NH2; disulfide 4-12) | –
9 | – | CSCC[C@H](NC(=O)[C@@H](NC(=O)[C@H](CCCCNC(C)=O)NC(=O)[C@@H]1CSSC[C@H](NC(=O)[C@@H](NC(=O)[C@H](CCCCNC(=O)COCC(=O)Nc2ccc(CCC(=O)N3CCC3=O)cc2)NC(=O)[C@H](Cc2ccccc2)NC(C)=O)C(C)C)C(=O)N[C@@H](CC(N)=O)C(=O)N[C@@H](Cc2c[nH]c3ccccc23)C(=O)N[C@@H](C(C)C)C(=O)N[C@@H]([C@@H](C)O)C(=O)N[C@@H](CC(C)C)C(=O)N2CCC[C@H]2C(=O)N[C@@H](Cc2cnc[nH]2)C(=O)N1)C(C)C)C(N)=O (Ac-FK(X1)VCNWVTLPHCK(Ac)VM-NH2; disulfide 4-12) | Kd (Placenta growth factor [1]; read-out: Kd): > 1 µM
10 | 5 µM | CSCC[C@H](NC(=O)[C@@H](NC(=O)[C@H](CCCNC(=N)N)NC(=O)[C@@H]1CSSC[C@H](NC(=O)[C@@H](NC(=O)[C@H](CC(=O)O)NC(=O)[C@H](Cc2ccccc2)NC(C)=O)C(C)C)C(=O)N[C@@H](CCCCN)C(=O)N[C@@H](Cc2c[nH]c3ccccc23)C(=O)N[C@@H](C(C)C)C(=O)N[C@@H]([C@@H](C)O)C(=O)N[C@@H](CC(C)C)C(=O)N2CCC[C@H]2C(=O)N[C@@H](Cc2cnc[nH]2)C(=O)N1)C(C)C)C(N)=O (Ac-FDVCKWVTLPHCRVM-NH2; disulfide 4-12) | –
11 | 100 µM | CC[C@H](C)[C@H](NC(=O)[C@@H]1CSSC[C@H](NC(=O)[C@@H](NC(=O)[C@H](CCC(N)=O)NC(=O)[C@H](Cc2c[nH]c3ccccc23)NC(C)=O)[C@@H](C)CC)C(=O)N[C@@H](CC(=O)O)C(=O)N[C@@H]([C@@H](C)CC)C(=O)N[C@@H](CC(C)C)C(=O)N[C@@H]([C@@H](C)O)C(=O)N[C@@H](CC(C)C)C(=O)N2CCC[C@H]2C(=O)N[C@@H](Cc2cnc[nH]2)C(=O)N1)C(=O)N[C@@H](Cc1ccccc1)C(=O)N[C@@H](CC(N)=O)C(N)=O (Ac-WQICDILTLPHCIFN-NH2; disulfide 4-12) | –
12 | – | N=C(N)NCCC[C@@H]1NC(=O)[C@H](CCCCNC(=O)COCC(=O)Nc2ccc(CCC(=O)N3CCC3=O)cc2)NC(=O)[C@@H](Cc2ccccc2)NC(=O)[C@H](CC(=O)O)NC(=O)CNC1=O | Kd (Placenta growth factor [1]): Not Active
13 | 9 µM | CC[C@H](C)[C@H](NC(=O)[C@H](CC(=O)O)NC(=O)[C@H](Cc1ccc(O)cc1)NC(C)=O)C(=O)N[C@H]1CSSC[C@@H](C(=O)N[C@@H](CCCCN)C(=O)N[C@@H](C)C(=O)N[C@H](C(N)=O)C(C)C)NC(=O)[C@H](Cc2cnc[nH]2)NC(=O)[C@@H]2CCCN2C(=O)[C@H](CC(C)C)NC(=O)[C@H](CCCNC(=N)N)NC(=O)[C@H]([C@@H](C)CC)NC(=O)[C@H](Cc2ccc(O)cc2)NC(=O)[C@H](CCCCN)NC1=O (Ac-YDICKYIRLPHCKAV-NH2; disulfide 4-12) | –
14 | 5 µM | CSCC[C@H](NC(=O)[C@@H](NC(=O)[C@H](CCCN=C(N)N)NC(=O)[C@@H]1CSSC[C@H](NC(=O)[C@@H](NC(=O)[C@H](CC(=O)O)NC(=O)[C@H](Cc2ccccc2)NC(C)=O)C(C)C)C(=O)N[C@@H](CC(N)=O)C(=O)N[C@@H](Cc2c[nH]c3ccccc23)C(=O)N[C@@H](C(C)C)C(=O)NCC(=O)N[C@@H](CC(C)C)C(=O)N[C@@H](C)C(=O)N[C@@H](Cc2cnc[nH]2)C(=O)N1)C(C)C)C(N)=O (Ac-FDVCNWVGLAHCRVM-NH2; disulfide 4-12) | –
15 | – | CC(=O)NCCCC[C@@H]1NC(=O)[C@@H](NC(=O)[C@@H](NC(=O)[C@H](CC(=O)O)NC(=O)[C@H](Cc2ccccc2)NC(C)=O)C(C)C)CSSC[C@@H](C(=O)N[C@@H](CCCCNC(C)=O)C(=O)N[C@H](C(=O)N[C@@H](CCCCN)C(=O)NC(=O)COCC(=O)Nc2ccc(CCC(=O)N3CCC3=O)cc2)C(C)C)NC(=O)[C@H](Cc2cnc[nH]2)NC(=O)[C@@H]2CCCN2C(=O)[C@H](CC(C)C)NC(=O)[C@H]([C@@H](C)O)NC(=O)[C@H](C(C)C)NC(=O)[C@H](Cc2c[nH]c3ccccc23)NC1=O (Ac-FDVCK(Ac)WVTLPHCK(Ac)V[X2]-X3; disulfide 4-12) | Kd (Placenta growth factor [1]; read-out: Kd): 0.008 µM
16 | 9 µM | CC[C@H](C)[C@H](NC(=O)[C@H](CC(=O)O)NC(=O)[C@H](Cc1ccc(O)cc1)NC(C)=O)C(=O)N[C@H]1CSSC[C@@H](C(=O)N[C@@H](CCCN=C(N)N)C(=O)N[C@@H](C)C(=O)N[C@H](C(N)=O)C(C)C)NC(=O)[C@H](Cc2cnc[nH]2)NC(=O)[C@@H]2CCCN2C(=O)[C@H](CC(C)C)NC(=O)[C@H](CCCNC(=N)N)NC(=O)[C@H]([C@@H](C)CC)NC(=O)[C@H](Cc2ccc(O)cc2)NC(=O)[C@H](CCCCN)NC1=O (Ac-YDICKYIRLPHCRAV-NH2; disulfide 4-12) | –
17 | – | CSCC[C@H](NC(=O)[C@@H](NC(=O)[C@H](CCCCNC(C)=O)NC(=O)[C@@H]1CSSC[C@H](NC(=O)[C@@H](NC(=O)[C@H](CC(=O)O)NC(=O)[C@H](CCCCNC(=O)COCC(=O)Nc2ccc(CCC(=O)N3CCC3=O)cc2)NC(C)=O)C(C)C)C(=O)N[C@@H](CC(N)=O)C(=O)N[C@@H](Cc2c[nH]c3ccccc23)C(=O)N[C@@H](C(C)C)C(=O)N[C@@H]([C@@H](C)O)C(=O)N[C@@H](CC(C)C)C(=O)N2CCC[C@H]2C(=O)N[C@@H](Cc2cnc[nH]2)C(=O)N1)C(C)C)C(N)=O (Ac-K(X1)DVCNWVTLPHCK(Ac)VM-NH2; disulfide 4-12) | Kd (Placenta growth factor [1]; read-out: Kd): > 1 µM
